This passage reports IC50 results from patent publication US20220098154A1 (IDEAYA Biosciences, Inc., priority 2019, published 2022).

The assay deals with T1, Pol theta polymerase domain (residues 1819-2590) (Homo sapiens, UniProt O75417).
T1 construct: Pol theta polymerase domain (residues 1819-2590)
T1 sequence (O75417 1819-2590): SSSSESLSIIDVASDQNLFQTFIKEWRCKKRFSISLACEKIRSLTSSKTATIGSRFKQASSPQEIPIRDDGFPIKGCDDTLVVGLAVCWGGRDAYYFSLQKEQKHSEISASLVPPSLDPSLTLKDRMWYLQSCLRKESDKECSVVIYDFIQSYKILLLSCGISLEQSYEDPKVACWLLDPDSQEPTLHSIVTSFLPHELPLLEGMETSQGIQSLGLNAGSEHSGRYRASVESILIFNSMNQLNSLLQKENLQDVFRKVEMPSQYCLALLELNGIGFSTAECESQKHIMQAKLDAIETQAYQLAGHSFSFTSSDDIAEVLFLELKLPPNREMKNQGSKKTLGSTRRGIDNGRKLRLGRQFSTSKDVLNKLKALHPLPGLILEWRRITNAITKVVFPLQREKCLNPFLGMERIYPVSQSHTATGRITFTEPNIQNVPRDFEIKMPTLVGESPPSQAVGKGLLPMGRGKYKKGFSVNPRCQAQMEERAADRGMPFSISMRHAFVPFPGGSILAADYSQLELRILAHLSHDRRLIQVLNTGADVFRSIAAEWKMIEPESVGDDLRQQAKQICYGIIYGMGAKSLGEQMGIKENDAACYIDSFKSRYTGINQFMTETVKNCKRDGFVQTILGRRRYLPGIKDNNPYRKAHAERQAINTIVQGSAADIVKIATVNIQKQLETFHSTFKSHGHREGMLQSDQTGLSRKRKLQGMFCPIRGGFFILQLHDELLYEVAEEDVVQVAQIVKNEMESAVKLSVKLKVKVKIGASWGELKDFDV
Description: Primer extension assay: inhibition of polymerase activity of Pol theta (molecular beacon fluorescence). The conditions noted are these: Pol theta polymerase domain 4 nM; 15 min pre-incubation; fluorescence change over 30 min (ex 485 nm, em 535 nm); 11-point dilution series. It is filed as biochemical. The procedure:
The ability of the compounds of Formula (I) to inhibit polymerase activity of Pol theta was determined using the assay described below.
A mixture of 20 uL of Pol theta polymerase domain (residues 1819-2590) at a final concentration of 4 nM in assay buffer (20 m M TRIS, pH 7.80, 50 mM KCl, 10 mM MgCl2, 1 mM DTT, 0.01% BSA, 0.01% Tween20) was added to test compounds (11-point dilution series of test compounds) except the low control wells without test compounds. The above enzyme and test compound inhibitor mixture was then incubated at room temperature for 15 min. An equal volume (20 μl) of dNTP substrate mixture (48 μM) and primed molecular beacon DNA (obtained by annealing template SEQ ID NO 2: (5′-CCTTCCTCCCGTGTCTTG-TACCTTCCCGTCA-GGAGGAAGG-3′) with 5′-TAMRA and 3′-BHQ and primer DNA (SEQ ID NO: 3; 5′-GACGGGAAGG-3′) in 10 mM Tris-HCl pH 8.0, 100 mM NaCl buffer) (96 nM) in assay buffer was added to all the test wells. The inhibition activity was measured by monitoring the fluorescence change over 30 min at 535 nm upon excitation at 485 nm. The high control (DMSO with enzyme) with high fluorescence intensity represents no inhibition of polymerase reaction while the low control (DMSO with buffer) with low fluorescence intensity represents full inhibition of polymerase activity. Slope of the reaction progress curves were used to calculate the rate of polymerization. The rates were used to determine the percent inhibition using a four-parameter inhibition model to generate IC50, Hill slope and max inhibition.
Broadly, the IC50 is the concentration that gives 50% inhibition. Read a high IC50 as a need for much substance. Consider `CN(C(=O)CNc1ncc2c(c1C#N)CCC2)c1ccc(F)cc1` [Example 24, 2-(4-cyano-6,7-dihydro-5H-cyclopenta[c]pyridin-3-ylamino)-N-(4-fluorophenyl)-N-methylacetamide], for which the IC50 lay in the range of 500 to 1000 nM.

`Cc1nc(OCC(=O)N(C)c2ccc(Cl)cc2)c(C#N)c(C)c1Cl` [Example 41, 2-[(5-chloro-3-cyano-4,6-dimethylpyridin-2-yl)oxy]-N-(4-chloro-phenyl)-N-methylacetamide] came in with an IC50 below 200 nM.

With `Cc1nc(NCC(=O)N(C)c2ccc(F)cc2)c(C#N)c(C)c1Cl` [Example 42, 2-(5-chloro-3-cyano-4,6-dimethylpyridin-2-ylamino)-N-(4-fluorophenyl)-N-methylacetamide], the IC50 is below 200 nM.

In turn, `Cc1c(C#N)c(NCC(=O)N(C)c2ccc(F)cc2)nc2c1CCC2` [Example 27, 2-([3-cyano-4-methyl-5H,6H,7H-cyclopenta[b]-pyridin-2-yl]amino)-N-(4-fluorophenyl)-N-methylacetamide] gave an IC50 below 200 nM.

`CC(=O)N1Cc2ccc(N(C)C(=O)CNc3nc(C(F)(F)F)cc(C(F)(F)F)c3C#N)cc2C1` [Example 59, N-(2-acetylisoindolin-5-yl)-2-((3-cyano-4,6-bis(trifluoromethyl)pyridin-2-yl)amino)-N-methylacetamide] returned an IC50 of 500 to 1000 nM.

For `CN(C(=O)CNc1nc(C(F)(F)F)cc(C(F)(F)F)c1C#N)c1ccc(OC2CC2)cc1` [Example 5, 2-((3-cyano-4,6-bis(trifluoromethyl)pyridin-2-yl)-amino)-N-(4-cyclopropoxyphenyl)-N-methyl-acetamide], the IC50 is below 200 nM.

Turning to `Cc1nc(N[C@@H](CCO)C(=O)N(C)c2ccc(F)cc2)c(C#N)c(C)c1Cl` [Example 15, (S)-2-(5-chloro-3-cyano-4,6-dimethylpyridin-2-yl-amino)-N-(4-fluorophenyl)-4-hydroxy-N-methyl-butanamide], the IC50 fell in the range of 200 to 500 nM.

Consider `[2H]C([2H])([2H])N(C(=O)CNc1nc(C(F)(F)F)cc(C(F)(F)F)c1C#N)c1ccc(F)cc1` [Example 47, 2-((3-cyano-4,6-bis(trifluoromethyl)pyridin-2-yl)amino)-N-(4-fluorophenyl)-N-(methyl-d3)acetamide], for which the IC50 was below 200 nM.

Take `Cc1nc(NCC(=O)N(C)c2ccc(Br)cc2)c(C#N)c(C)c1Cl` [Example 39, N-(4-bromophenyl)-2-(5-chloro-3-cyano-4,6-dimethyl-pyridin-2-ylamino)-N-methylacetamide]: the IC50 is below 200 nM.

In turn, `Cc1nc(NCC(=O)N(C)c2ccc(F)cc2F)c(C#N)c(C)c1Cl` [Example 26, 2-((5-chloro-3-cyano-4,6-dimethylpyridin-2-yl)-amino)-N-(2,4-difluorophenyl)-N-methylacetamide] registered an IC50 below 200 nM.

The compound `CN(C(=O)CNc1cc(Cl)cc(C(F)(F)F)c1C#N)c1ccc(F)cc1` [Example 11, 2-[[5-chloro-2-cyano-3-(trifluoromethyl)phenyl]-amino]-N-(4-fluorophenyl)-N-methylacetamide] registered an IC50 below 200 nM.

Compound `CN(C(=O)CNc1nc(C(F)(F)F)cc(C(F)(F)F)c1C#N)c1cc(Cl)cc(Cl)c1` [Example 60, 2-((3-cyano-4,6-bis(trifluoromethyl)pyridin-2-yl)amino)-N-(3,5-dichlorophenyl)-N-methylacetamide] yielded a half-maximal inhibitory concentration (IC50) below 200 nM.

As for `CN(C(=O)CNc1cc(Cl)cc(Cl)c1)c1ccc(F)cc1` [Example 31, 2-[(3,5-dichlorophenyl)amino]-N-(4-fluorophenyl)-N-methyl-acetamide], the IC50 lay within 500 to 1000 nM.

On to `Cc1nc(NCC(=O)N(C)c2ccc(Cl)c(Cl)c2)c(C#N)c(C)c1Cl` [Example 32, 2-(5-chloro-3-cyano-4,6-dimethylpyridin-2-ylamino)-N-(3,4-dichlorophenyl)-N-methylacetamide], for which the IC50 was below 200 nM.

For the compound `CN(C(=O)CNc1nc(C(F)(F)F)cc(C(F)(F)F)c1C#N)c1ccc2c(ccn2C)c1` [Example 55, 2-((3-cyano-4,6-bis(trifluoromethyl)pyridin-2-yl)amino)-N-methyl-N-(1-methyl-1H-indol-5-yl)acetamide], the IC50 was below 200 nM.

`Cc1nc(OCC(=O)N(C)c2ccc(F)cc2)c(C#N)c(C)c1Cl` [Example 43, 2-[(5-chloro-3-cyano-4,6-dimethylpyridin-2-yl)oxy]-N-(4-fluoro-phenyl)-N-methylacetamide] showed an IC50 below 200 nM.

`Cc1cc(NCC(=O)N(C)c2ccccc2)nc(C)c1Cl` [Example 34, 2-[(5-chloro-4,6-dimethylpyridin-2-yl)amino]-N-methyl-N phenylacetamide] gave an IC50 of 500 to 1000 nM.

`CN(C(=O)CNc1nc(C(F)(F)F)cc(C(F)(F)F)c1C#N)c1ccc(C#N)cc1` [Example 3, 2-((3-cyano-4,6-bis(trifluoromethyl)pyridin-2-yl)-amino)-N-(4-cyanophenyl)-N-methylacetamide]: the IC50 is 200 to 500 nM.

Regarding `Cc1nc(OCC(=O)N(C)c2ccc(Br)cc2)c(C#N)c(C)c1Cl` [Example 35, N-(4-bromophenyl)-2-[(5-chloro-3-cyano-4,6-dimethylpyridin-2-yl)oxy]-N-methylacetamide], the IC50 was below 200 nM.

As for `N#Cc1c(C(F)(F)F)cc(C(F)(F)F)nc1NCC(=O)N(CC(F)(F)F)c1ccc(F)cc1` [Example 8, 2-(3-cyano-4,6-bis(trifluoromethyl)pyridin-2-yl-amino)-N-(4-fluorophenyl)-N-(2,2,2-trifluoroethyl)-acetamide], the IC50 is below 200 nM.

As to `CN(C(=O)CNc1cc(Cl)cc(Br)c1)c1ccc(F)cc1` [Example 20, 2-[(3-bromo-5-chlorophenyl)amino]-N-(4-fluoro-phenyl)-N-methylacetamide], the IC50 was 200 to 500 nM.

`Cc1nc(N[C@@H](C)C(=O)N(C)c2ccc(F)cc2)c(C#N)c(C)c1Cl` [Example 25, (S)-2-((5-chloro-3-cyano-4,6-dimethylpyridin-2-yl)-amino)-N-(4-fluorophenyl)-N-methylpropanamide] gave an IC50 below 200 nM.

Turning to `CN(C(=O)CNc1cc(C(F)(F)F)cc(C(F)(F)F)c1)c1ccc(F)cc1` [Example 12, 2-((3,5-bis(trifluoromethyl)phenyl)amino)-N-(4-fluorophenyl)-N-methylacetamide], the IC50 was below 200 nM.

`Cc1nc(NCC(=O)N(C)c2ccc(Cl)cc2)c(C#N)c(C)c1Cl` [Example 40, 2-(5-chloro-3-cyano-4,6-dimethylpyridin-2-ylamino)-N-(4-chlorophenyl)-N-methylacetamide] showed an IC50 below 200 nM.

The compound `Cc1nc(NCC(=O)N(C)c2ccc(F)cc2)c(Cl)c(C)c1Cl` [Example 23, 2-(3,5-dichloro-4,6-dimethylpyridin-2-ylamino)-N-(4-fluoro-phenyl)-N-methylacetamide] came in with an IC50 below 200 nM.

For the compound `CN(C(=O)CNc1cc(Cl)cc(C(F)(F)F)c1)c1ccc(F)cc1` [Example 13, 3-[[3-chloro-5-(trifluoromethyl)phenyl]amino]-N-(4-fluoro-phenyl)-N-methylacetamide], the IC50 is below 200 nM.

The compound `Cc1nc(NCC(=O)N(c2ccc(Cl)cc2)C(C)C)c(C#N)c(C)c1Cl` [Example 30, 2-[(5-chloro-3-cyano-4,6-dimethylpyridin-2-yl)-amino]-N-(4-chlorophenyl)-N-(propan-2-yl)-acetamide] gave an IC50 of 200 to 500 nM.

Compound `CN(C(=O)CNc1nc(C(F)(F)F)cc(C(F)(F)F)c1C#N)c1ccc(F)cc1` [Example 10, 2-(3-cyano-4,6-bis(trifluoromethyl)pyridin-2-yl-amino)-N-(4-fluorophenyl)-N-methylacetamide] had an IC50 below 200 nM.

`CN(C(=O)CNc1nc(C(F)(F)F)cc(C(F)(F)F)c1C#N)c1ccc(Br)cc1` [Example 61, N-(4-bromophenyl)-2-((3-cyano-4,6-bis(trifluoromethyl)pyridin-2-yl)amino)-N-methylacetamide] yielded a concentration for half-maximal inhibition (IC50) below 200 nM.
